Here are results for two molecules from article PMC11671014 (PLOS Pathogens, 2024).

Read-outs that look alike come from different tables or passages of the source. Bounds are passed on as bounds.

One series deals with Dd2-B2 parasites. The experiment in a line: Minimum inoculum of resistance (MIR) selection. It is filed as cell-based, Plasmodium falciparum. The note with it: for IC50: DD2, read-out: in-house mean IC50; for IC50 fold shift (clones): 3 x IC50. As to the method:
MIR studies were conducted for ML901 and ML471 using a modified “Gate keeper assay” [34]. […] For ML901, the parasites (starting parasite inoculums of 1x10^7 or 1x10^8 in triplicate) were subjected to pressure at 3 x IC50, with recrudescence on days 12–14. […] The different pressure regimens reflect the standard protocols in the Fidock lab used at the times of analysis. Wells were monitored daily by smear during the first seven days to ensure parasite clearance, during which media was changed daily. Thereafter, cultures were screened three times weekly by flow cytometry and smearing, and the selection maintained a consistent drug pressure over 60 days. […] Whole-genome sequencing analysis identified CNVs in chromosome 8 segments, always containing the PfTyrRS locus, consistent with our earlier evidence of this as the target of ML901 [16]. Single nucleotide polymorphism (SNP) filtering was lowered to 0.5 allelic balance (AB) but yielded no point mutations in the core genome.

Another series has as its target T1, HsTyrRS (Homo sapiens, UniProt P54577).
T1 sequence (P54577 1-528): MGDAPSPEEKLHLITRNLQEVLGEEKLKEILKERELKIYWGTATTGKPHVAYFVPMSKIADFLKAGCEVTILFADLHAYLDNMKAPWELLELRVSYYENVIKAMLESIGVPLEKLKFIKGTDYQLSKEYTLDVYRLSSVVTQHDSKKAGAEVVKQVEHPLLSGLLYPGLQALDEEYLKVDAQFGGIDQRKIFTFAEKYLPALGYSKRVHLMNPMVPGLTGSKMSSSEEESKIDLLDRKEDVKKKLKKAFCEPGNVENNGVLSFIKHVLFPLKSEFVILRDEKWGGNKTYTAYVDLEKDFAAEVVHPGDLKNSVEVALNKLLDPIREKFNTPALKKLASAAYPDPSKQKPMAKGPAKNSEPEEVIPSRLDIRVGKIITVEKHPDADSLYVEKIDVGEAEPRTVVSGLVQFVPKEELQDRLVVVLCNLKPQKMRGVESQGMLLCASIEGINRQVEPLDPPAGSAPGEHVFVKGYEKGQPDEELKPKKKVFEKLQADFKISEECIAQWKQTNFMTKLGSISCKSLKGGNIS
The experiment in a line: Differential scanning fluorimetry (DSF) of HsTyrRS. The series is classed as binding. The settings on record: for thermal stabilisation of recombinant HsTyrRS (in words): with all substrates; for HsTyrRS Tm: with sulfamate, tyrosine and tRNA, apo 49.0 ± 0.2. As for the experimental part:
The effect on ML471 and analogues on the thermal stability of TyrRS enzymes was assayed as previously described. […] SYPRO Orange (Sigma-Aldrich; 5,000X concentrate in DMSO) was added to the reaction mixture at a final concentration of 5X. 25 μL of the sample was added into each well of a 96-well qPCR plate (Applied Biosystems). The plate was sealed and analysed using StepOnePlus Real-Time PCR system (Applied Biosystems). The samples were heated from 20°C to 90°C with a 1% continuous gradient. The thermal unfolding curve was plotted as the first derivative curve of the raw fluorescence values. The melting temperature (Tm), defined as the peak of the first derivative curve, was used to assess the thermal stability of protein-ligand complexes.

The test system of series [1] is Pf3D7-pfs16-CBG99 gametocytes, immature (stage II/III) and mature (stage V). The experiment in a line: Gametocyte killing assay (luciferase). It is filed as cell-based. The settings on record: Plasmodium falciparum, 48 h. As for the experimental part:
Gametocytogenesis was induced on a tightly synchronised (>97% rings) asexual parasite culture (Pf3D7-pfs16-CBG99 (kind gift from Pietro Alano), 0.5% parasitemia and 6% hematocrit) with a combination of nutrient starvation and a decrease in hematocrit, as previously described. For immature gametocytes (>90% stage II/III), cultures were exposed to 50 mM N-acetyl glucosamine (NAG) on days 1–4 to eliminate residual asexual parasites and harvested at days 5–6. For mature (>95% stage V) gametocytes, NAG treatment occurred from days 3–7 and harvest at day 13. Stage II/III and V gametocyte cultures (2 % gametocytaemia 1.5 % haematocrit, 150 μL/well) were exposed to compounds and incubated at 37°C for 48 h under hypoxic conditions, after which luciferase activity was determined with a non-lysing D-luciferin substrate (1mM in 0.1M citrate buffer, pH 5.5, 100 μL) and bioluminescence was detected with a 2 s integration time with a GloMax-Multi Detection System with Instinct software.

The next series concerns Primary hepatocytes. The experiment in a line: Toxicity to primary hepatocyte host cells in the liver stage assay. The series is classed as cell-based, human. The note with it: for IC50: Homo sapiens, Hepatocyte. As to the method:
(§1) Activity against liver stage parasites was performed using a modification of published procedures. Briefly, cryopreserved human primary hepatocytes (NF175: H1500.H15B+ Lot No. HC0-6, TebuBio or NF135: F00995-P Lot No. IRZ, BioIVT) were thawed and seeded at 18,000 cells per well in collagen-coated 384-well microtiter plates in medium containing 10% heat inactivated fetal bovine serum (hiFBS). Cells were cultured at 37°C in 5% CO2. For NF175, medium was replaced by fresh medium containing 10% hiFBS, 5 h post plating. For NF135, medium was replaced by medium containing 0.2% BSA, 24 h post plating. 48 h post plating, salivary glands from Plasmodium-NF175 or NF135-infected Anopheles stephensi mosquitoes were dissected, added to the hepatocytes (10,000 per well/ NF175; or 12,500 per well/ NF135) and allowed to infect for 3 hours. Sporozoites were then aspirated, and compounds diluted in medium containing 10% hiFBS or 0.2% BSA, were added to the hepatocytes. Medium containing 10% hiFBS or 0.2% BSA and compounds was refreshed daily for four days. Hepatocytes were fixed with ice-cold methanol and samples were blocked with 10% hiFBS in PBS. Schizonts were stained with rabbit anti-HSP70 in 10% hiFBS for 1–2 h followed by incubation with a mixture of secondary goat anti-rabbit AlexaFluor 594 antibody and 4′,6-diamidine-2′-phenylindole dihydrochloride (DAPI) in 10% hiFBS for 30 min. Samples were washed with PBS containing 0.05% Tween 20 between different steps. Cells were imaged on a PicoExpress high content imager, and images were analysed automatically using CellReporterXpress software. Data were analysed by logistic regression using a four-parameter (Hill equation) model and a least-squares method to find the best fit.

Series [2] deals with P. falciparum liver stage schizont (NF135). The experiment in a line: Liver stage schizont assay in primary human hepatocytes (NF135). It is filed as cell-based. The note with it: Plasmodium falciparum, Hepatocyte, 96 h, four days. As for the experimental part:
as §1

The mark [3] stands for this setting: read-out: Early stage gametocytes IC50.
Where [4] appears, read: read-out: Mature stage gametocytes IC50.
Setting [5] is: host cells of the NF135 experiment.
The mark [6] stands for this setting: host cells of the NF175 experiment.

With `Nc1ncnc2c1c(OC(F)F)nn2[C@@H]1O[C@H](COS(N)(=O)=O)[C@@H](O)[C@H]1O` [ML901], the IC50 with Dd2-B2 parasites (Plasmodium falciparum) is 2.6 ± 0.05 nM; in series [1] (setting [3]) it was 310 ± 60 nM; in series [1] (setting [4]), 1660 ± 140 nM; in the series on Primary hepatocytes (setting [5]), greater than 100 nM; with Primary hepatocytes (setting [6]) it was greater than 10000 nM; in series [2], 2.9 ± 0.9 nM. Further, the “IC50 fold shift (clones)” value in the series with Dd2-B2 parasites (selection with 10^7 parasites) is reported as 2-3 x IC50; in the series on Dd2-B2 parasites (selection with 10^8 parasites), 3-6 x IC50. For the same molecule, the “HsTyrRS binding (DSF) Delta Tm” value on HsTyrRS (200 μM sulfamate, ATP, tyrosine, yeast tRNA, 37°C 4 h) amounted to 0.4 ± 0.1 °C. Further, the “thermal stabilisation of recombinant HsTyrRS (in words)” value on HsTyrRS is given as “not stabilised”. Moreover, at HsTyrRS (ATP), the “HsTyrRS Tm” value was 49.4 ± 0.1 °C.
`CC(C)c1nn([C@@H]2O[C@H](COS(N)(=O)=O)[C@@H](O)[C@H]2O)c2ncnc(N)c12` [ML471, ((2R,3S,4R,5R)-5-(4-amino-3-isopropyl-1H-pyrazolo[3,4-d]pyrimidin-1-yl)-3,4-dihydroxytetrahydrofuran-2-yl)methyl sulfamate]: the IC50 is 1.45 nM in the series with Dd2-B2 parasites (Plasmodium falciparum); 112 nM in series [1] (setting [3]); 392 nM in series [1] (setting [4]); greater than 100 nM in the series with Primary hepatocytes (setting [5]); greater than 10000 nM in the series on Primary hepatocytes (setting [6]); 5.5 nM in series [2]. Also, in the series on Dd2-B2 parasites (Plasmodium falciparum, DD2, read-out: mean IC90), the IC90 amounted to 1.99 nM. For the same molecule, in the series with Dd2-B2 parasites (selection with 2x10^5 parasites, 10 x IC50), the IC50 shift was 9-16 xIC50. Further, the ΔTm at 200 µM on HsTyrRS (200 μM sulfamate, ATP, tyrosine, yeast tRNA, 37°C 4 h, read-out: HsTyrRS binding (DSF) Delta Tm) is 0.06 ± 0.04 °C. Further, the “thermal stabilisation of recombinant HsTyrRS (in words)” value on HsTyrRS is “not stabilised”. Also, the “HsTyrRS Tm” value at HsTyrRS (ATP) was 49.0 ± 0.2 °C. For the same molecule, the “toxicity against the primary hepatocyte host cells (in words)” value in the series with Primary hepatocytes is listed as “no toxicity”.
